The numbers were not newly measured in US7642353B2, “Process of making crystalline aripiprazole” (Synthon BV, priority 2004, dated 2010), which cites them from elsewhere.

Each structure is given as a SMILES string.

As for `O=C1CCc2ccc(OCCCCN3CCN(c4cccc(Cl)c4Cl)CC3)cc2N1` [Anhydrous Form B, 7-[4-[4-(2,3-dichlorophenyl)-1-piperazinyl]butoxy]-3,4-dihydrocarbostyril], for the setting “in 24 hours”, the water uptake entry is recorded as “less than 0.4%”.
Turning to `O=C1CCc2ccc(OCCCCN3CCN(c4cccc(Cl)c4Cl)CC3)cc2N1` [Type I aripiprazole, 7-[4-[4-(2,3-dichlorophenyl)-1-piperazinyl]butoxy]-3,4-dihydrocarbostyril], the hygroscopicity result (solid form, as taught by WO 03/26659) was “significantly hygroscopic”.
